Laboratory results taken from PMC11597478, “Kinin B1- and B2-Receptor Subtypes Contract Isolated Bovine Ciliary Muscle: Their Role in Ocular Lens Function and Intraocular Pressure Reduction” (Pharmaceuticals, 2024).
Where two headings read alike, the source gives them in different places. Square brackets hold non-standard residues; d marks the D form. Peptide text beside a SMILES is read from it. * marks the point of attachment. X1 = COc1ccc(C[C@@H](CN[C@@H](CCCNC(=N)N)C(=O)O)N*)cc1; Hyp = O=C(O)[C@@H]1C[C@@H](O)CN1; 2Thi = N[C@@H](Cc1cccs1)C(=O)O

Tests used:
[1] = tested on: bovine ciliary muscle (BCM) strips; experiment: tissue or blood; type: cell-based; conditions: for share of the maximal contraction accounted for by the first high affinity/potency phase: biphasic C-R curve, BCM strips; for Max. Tension Generated During Contraction: freshly isolated BCM strips, Krebs 37 °C, 1 g load, 7–11 concentrations (0.1 nM–10 µM), mean ± SEM, 3–8 experiments
Method: The methods utilized in the current studies were adapted from Lograno and Romano [13] and Ohia et al., with some minor modifications. Fresh bovine eyeballs were obtained from a local abattoir (Fisher Ham and Meat Company, Houston, TX, USA) and transported to the laboratory in ice. Whole eyeballs were placed in warm oxygenated Krebs buffer solution for 30 min to ensure equilibration before dissection of the ciliary muscle. Briefly, the anterior segment was dissected out of whole eyeballs after an incision was made at the limbus. The anterior segment containing the cornea, anterior uvea, and lens was then inverted and the lens dislodged with a probe along with the attached vitreous humor. After removal of the vitreous humor and lens, the whole ciliary muscle (comprising both longitudinal and circular portions) was quickly isolated and dissected from the scleral spur and choroid. Muscle strips of 4–5 mm in length were cut and mounted in 25 mL organ baths containing oxygenated Krebs solution at 37 °C using a silk thread linked to an isometric strain gauge under a constant load of 1g tension. The tissues were then allowed to equilibrate for 30 min. Two ciliary muscle strips were prepared from each eyeball and four to eight strips were used for each series of experiments. The composition of the Krebs solution used (mM) was NaCl, 118; KCl, 4.8; CaCl2, 2.5; KH2PO4, 1.2; NaHCO3, 25; MgSO4, 2.0; dextrose, 10 and flurbiprofen, 0.003 (pH 7.4), all purchased from Sigma-Aldrich, St. Louis, MO (USA). […] A robust response was characterized as a single contraction that consistently yielded a tension in the muscle induced by carbachol of 0.15–0.3 gm. […] Tissue strips were then thoroughly rinsed with fresh buffer solution via a series of buffer additions and drainage activities to remove any residual muscarinic agonist, and the preload was readjusted prior to starting the actual study with kininergic ligands. Concentration–response studies employed 7–11 compound concentrations (0.1 nM to 10 µM) and data from multiple experiments were collected.
The contractile responses obtained were expressed as gram tension developed and as percentages of the maximum response of each of the compounds. GraphPad Prism 4.0 Software (San Diego, CA, USA) was then used to construct the concentration–response curves for the kinins and to derive the half-maximal stimulation potencies (EC50) of each phase of the bi-phasic curves and the values tabulated as previously described.

human umbilical vein = conditions: B2-receptor-mediated contraction; ref [1],[2],[3],[18],[20],[23]; read-out: Functional potency, HUV, HP Site; cited from earlier work
Text: Table 2 Ability of BK and Des-Arg^9-BK to Contract Various Tissues of Different Species or to Mobilize Intracellular Ca^2+ in human Ocular Cells. | column: HUV

rat uterus strips = conditions: B2-receptor-mediated contraction; ref [1],[2],[3],[18],[20],[23]; read-out: Functional potency, RUT, HP Site; cited from earlier work
Text: Table 2 Ability of BK and Des-Arg^9-BK to Contract Various Tissues of Different Species or to Mobilize Intracellular Ca^2+ in human Ocular Cells. | column: RUT

rat ileum = conditions: B1-receptor in rat ileum, contraction; ref [25]; read-out: Functional potency, RI, HP Site; cited from earlier work
Text: Table 2 Ability of BK and Des-Arg^9-BK to Contract Various Tissues of Different Species or to Mobilize Intracellular Ca^2+ in human Ocular Cells. | column: RI || In the current studies, both BK and Des-Arg^9-BK contracted the BCM in a biphasic fashion, indicating the involvement of both B1 and B2 receptors in the smooth muscle contraction process. Other agonist peptides related to BK also elicited similar profiles of contractility, thereby substantiating the effects of BK and Des-Arg^9-BK in this specific tissue. Furthermore, the role of both kinin receptor subtypes being responsible for contracting BCM in vitro was confirmed by sequentially recording the functional responses of the tissue in the presence of B1- and B2-receptor antagonists in numerous ...

[2] = tested on: human ciliary muscle (hCM) cells; conditions: [Ca2+]i mobilization, first value of cell; single B2-receptor subtype; ref [2],[8]; read-out: Functional potency, hCM Cells, HP Site; cited from earlier work
Text: (§1) Table 2 Ability of BK and Des-Arg^9-BK to Contract Various Tissues of Different Species or to Mobilize Intracellular Ca^2+ in human Ocular Cells. | column: hCM/hTM Cells

[3] = tested on: human trabecular meshwork (hTM) cells; conditions: [Ca2+]i mobilization, second value of cell; single B2-receptor subtype; ref [2],[8]; read-out: Functional potency, hTM Cells, HP Site; cited from earlier work
Text: as §1

cloned B2 receptor [4] = conditions: ref [1]; read-out: Ki, cloned B2 receptor (mouse); cited from earlier work
cloned B2 receptor [5] = conditions: ref [1]; read-out: Ki, cloned B2 receptor (rabbit); cited from earlier work
cloned B2 receptor [6] = conditions: ref [1]; cited from earlier work
[7] = tested on: bovine aortic endothelial cells; conditions: ref [21]; cited from earlier work
Text: Figure 2 Chemical structures of bradykinin and its key analogs and those of the selective B1- and B2-receptor antagonists. The amino acid composition and linkage to form bradykinin and its analogs (linear peptides) are depicted in the upper panel.

[8] = target: kinin B1 receptor (Homo sapiens) (UniProt P46663); conditions: cited from earlier work
[9] = target: kinin B1 receptor (Oryctolagus cuniculus) (UniProt P48748); conditions: cited from earlier work
[10] = target: kinin B2 receptor (Oryctolagus cuniculus) (UniProt Q28642); conditions: cited from earlier work
[11] = target: kinin B2 receptor (Homo sapiens) (UniProt P30411); conditions: cited from earlier work
[12] = target: kinin B2 receptor (Mus musculus) (UniProt P32299); conditions: cited from earlier work
[13] = target: kinin B1 receptor (Mus musculus) (UniProt Q61125); conditions: cited from earlier work
[14] = target: kinin B1 receptor (Mus musculus) (UniProt Q61125); conditions: cited from earlier work; remark: listed apart in the source

Sequence of UniProt Q61125 (Q61125 whole entry): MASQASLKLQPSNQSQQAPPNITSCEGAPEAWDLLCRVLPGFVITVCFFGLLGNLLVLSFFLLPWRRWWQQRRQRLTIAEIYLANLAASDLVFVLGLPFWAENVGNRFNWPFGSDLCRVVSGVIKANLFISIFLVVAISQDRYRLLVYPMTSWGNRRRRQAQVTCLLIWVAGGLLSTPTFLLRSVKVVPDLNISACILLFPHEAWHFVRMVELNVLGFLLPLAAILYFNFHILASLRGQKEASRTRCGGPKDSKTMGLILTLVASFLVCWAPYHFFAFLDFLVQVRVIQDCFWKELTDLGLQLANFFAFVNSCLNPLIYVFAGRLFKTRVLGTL
Sequence of UniProt Q28642 (Q28642 whole entry): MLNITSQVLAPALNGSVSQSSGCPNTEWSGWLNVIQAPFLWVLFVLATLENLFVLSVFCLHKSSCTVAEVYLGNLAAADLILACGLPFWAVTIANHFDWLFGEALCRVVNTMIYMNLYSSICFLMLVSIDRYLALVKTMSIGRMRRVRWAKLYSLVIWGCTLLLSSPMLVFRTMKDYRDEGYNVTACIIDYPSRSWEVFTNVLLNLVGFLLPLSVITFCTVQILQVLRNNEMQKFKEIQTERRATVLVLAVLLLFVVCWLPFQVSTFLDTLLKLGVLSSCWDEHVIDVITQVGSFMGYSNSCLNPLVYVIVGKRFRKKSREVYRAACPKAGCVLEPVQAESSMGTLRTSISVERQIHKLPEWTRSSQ
Sequence of UniProt P46663 (P46663 whole entry): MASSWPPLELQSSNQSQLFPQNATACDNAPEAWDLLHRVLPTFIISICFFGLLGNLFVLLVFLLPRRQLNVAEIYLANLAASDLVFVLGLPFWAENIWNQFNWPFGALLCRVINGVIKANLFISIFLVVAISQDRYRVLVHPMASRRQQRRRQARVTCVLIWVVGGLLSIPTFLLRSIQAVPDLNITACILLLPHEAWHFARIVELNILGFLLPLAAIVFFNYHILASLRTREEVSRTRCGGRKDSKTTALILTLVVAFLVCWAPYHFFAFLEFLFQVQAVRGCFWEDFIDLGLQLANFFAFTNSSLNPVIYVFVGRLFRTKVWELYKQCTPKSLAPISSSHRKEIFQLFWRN
Sequence of UniProt P30411 (P30411 whole entry): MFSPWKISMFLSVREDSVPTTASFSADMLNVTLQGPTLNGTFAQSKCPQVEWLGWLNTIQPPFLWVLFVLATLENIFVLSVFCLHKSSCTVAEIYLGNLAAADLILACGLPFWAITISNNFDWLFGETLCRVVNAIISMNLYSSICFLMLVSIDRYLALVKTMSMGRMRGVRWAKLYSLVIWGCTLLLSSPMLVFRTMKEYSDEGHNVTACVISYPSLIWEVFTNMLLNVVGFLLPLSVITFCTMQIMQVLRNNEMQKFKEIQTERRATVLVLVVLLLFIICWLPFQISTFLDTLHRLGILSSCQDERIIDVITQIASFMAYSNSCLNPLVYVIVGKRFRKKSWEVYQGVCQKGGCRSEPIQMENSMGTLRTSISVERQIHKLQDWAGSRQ
Sequence of UniProt P48748 (P48748 whole entry): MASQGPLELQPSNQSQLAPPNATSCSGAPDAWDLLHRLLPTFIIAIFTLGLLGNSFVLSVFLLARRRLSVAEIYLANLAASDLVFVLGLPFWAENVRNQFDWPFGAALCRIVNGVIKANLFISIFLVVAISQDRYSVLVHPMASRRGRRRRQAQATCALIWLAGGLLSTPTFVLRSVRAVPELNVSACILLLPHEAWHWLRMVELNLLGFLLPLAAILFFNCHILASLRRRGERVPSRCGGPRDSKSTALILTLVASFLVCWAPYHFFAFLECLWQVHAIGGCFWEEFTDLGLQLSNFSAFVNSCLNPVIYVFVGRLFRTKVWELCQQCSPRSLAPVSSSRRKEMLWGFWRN
Sequence of UniProt P32299 (P32299 whole entry): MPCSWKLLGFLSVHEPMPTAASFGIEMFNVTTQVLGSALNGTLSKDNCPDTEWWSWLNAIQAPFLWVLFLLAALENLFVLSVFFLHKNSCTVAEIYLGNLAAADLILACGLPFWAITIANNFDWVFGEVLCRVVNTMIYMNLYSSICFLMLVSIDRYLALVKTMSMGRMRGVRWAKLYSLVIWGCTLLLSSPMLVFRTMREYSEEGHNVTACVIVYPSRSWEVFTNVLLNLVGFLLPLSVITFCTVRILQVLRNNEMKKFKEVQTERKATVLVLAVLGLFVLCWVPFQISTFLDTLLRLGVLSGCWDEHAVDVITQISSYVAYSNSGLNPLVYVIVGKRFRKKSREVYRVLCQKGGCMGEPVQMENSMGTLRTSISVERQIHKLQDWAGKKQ

Compound: N=C(N)NCCC[C@H](N)C(=O)N1CCC[C@H]1C(=O)N1CCC[C@H]1C(=O)NCC(=O)N[C@@H](Cc1ccccc1)C(=O)N[C@@H](CO)C(=O)N1CCC[C@H]1C(=O)N[C@@H](Cc1ccccc1)C(=O)O [Des-Arg^9-BK, Des-Arg^9-Bradykinin]
- EC50 [1]: 30 ± 1.9 nM
- share of the maximal contraction accounted for by the first high affinity/potency phase [1]: 40–60%
- Max. Tension Generated During Contraction [1]: 0.06 ± 0.01 gm tension
- EC50 (human umbilical vein): > 1000 nM
- EC50 (rat uterus strips): > 1000 nM
- EC50 (rat ileum): 18.6 nM
- EC50 [2]: 4200 nM
- EC50 [3]: 3600 nM
- Ki (cloned B2 receptor [4]): 6400 nM
- Ki (cloned B2 receptor [5]): > 1000 nM
- Ki (cloned B2 receptor [6]): 8100 nM

Compound: N=C(N)NCCC[C@H](NC(=O)[C@H](Cc1ccccc1)NC(=O)[C@@H]1CCCN1C(=O)[C@H](CO)NC(=O)[C@H](Cc1ccccc1)NC(=O)CNC(=O)[C@@H]1C[C@@H](O)CN1C(=O)[C@@H]1CCCN1C(=O)[C@@H](N)CCCNC(=N)N)C(=O)O [Hyp^3-BK, Hyp^3-Bradykinin]
- share of the maximal contraction accounted for by the first high affinity/potency phase [1]: 40–60%
- Max. Tension Generated During Contraction [1]: 0.04 ± 0.01 gm tension

Compound: N=C(N)NCCC[C@H](NC(=O)[C@H](Cc1ccccc1)NC(=O)[C@@H]1CCCN1C(=O)[C@H](CO)NC(=O)[C@H](Cc1ccccc1)NC(=O)CNC(=O)[C@@H]1CCCN1C(=O)[C@@H]1CCCN1C(=O)[C@H](CCCNC(=N)N)NC(=O)[C@@H](N)CCCCN)C(=O)O [Lys-BK, Lys-Bradykinin]
- share of the maximal contraction accounted for by the first high affinity/potency phase [1]: 40–60%
- Max. Tension Generated During Contraction [1]: 0.06 ± 0.01 gm tension

Compound: CSCC[C@H](N)C(=O)N[C@@H](CCCCN)C(=O)N[C@@H](CCCNC(=N)N)C(=O)N1CCC[C@H]1C(=O)N1CCC[C@H]1C(=O)NCC(=O)N[C@@H](Cc1ccccc1)C(=O)N[C@@H](CO)C(=O)N1CCC[C@H]1C(=O)N[C@@H](Cc1ccccc1)C(=O)N[C@@H](CCCNC(=N)N)C(=O)O [Met-Lys-BK, Met-Lys-Bradykinin]
- share of the maximal contraction accounted for by the first high affinity/potency phase [1]: 40–60%
- Max. Tension Generated During Contraction [1]: 0.06 ± 0.01 gm tension

Compound: COc1ccc(C[C@@H](CN[C@@H](CCCNC(=N)N)C(=O)O)NC(=O)[C@@H]2CCCN2C(=O)[C@H](CO)NC(=O)[C@H](Cc2cccs2)NC(=O)CNC(=O)[C@@H]2C[C@@H](O)CN2C(=O)[C@@H]2CCCN2C(=O)[C@@H](N)CCCNC(=N)N)cc1 [RMP-7] (H-RP[Hyp]G[2Thi]SP-X1)
- EC50 [1]: 3.5 ± 0.5 nM
- share of the maximal contraction accounted for by the first high affinity/potency phase [1]: 40–60%
- Max. Tension Generated During Contraction [1]: 0.07 ± 0.01 gm tension

Compound: CCCC[P+](CCCC)(CCCC)Cc1ccc(NC(=O)[C@H](Cc2ccc3ccccc3c2)NC(=NC2CCCCC2)NC2CCCCC2)cc1.[Cl-] [WIN-64338]
- effect on cGMP production induced by Des-Arg^9-BK [7]: block the cGMP-producing effects of Des-Arg^9-BK

Compound: CN1[C@@H]2CC[C@H]1C[C@@H](OC(=O)C(CO)c1ccccc1)C2 (stereo partly shown) [atropine]
- EC50 ([1]; Bos taurus, carbachol C-R curve in the absence and presence of atropine, n = 6, read-out: potency (EC50) from monophasic carbachol concentration-response curve): 1000 ± 70 nM
- effect of muscarinic antagonist on carbachol-induced BCM contraction ([1]; increasing concentrations of atropine, n = 6–8): concentration-dependently blocked

Compound: C[N+](C)(C)CCOC(N)=O [carbachol]
- contraction of BCM by positive control agent ([1]; monophasic concentration-dependent profile, n = 6–8): always contracted the tissue

Compound: Bradykinin (from UniProt P01042)
- Ki [8]: 10000 nM
- Ki [9]: 5000 nM
- Ki [10]: 4.5 nM
- Ki [11]: 0.54 nM
- Ki [12]: 0.48 nM
- Ki [13]: 200 nM

Compound: Des-Arg9-bradykinin (from UniProt P01042)
- Ki [14]: 0.7 nM
